In PubChem BioAssay AID256 (DTP/NCI, 2004):
Where “and” joins values, the source holds several entries; their conditions need not be identical. Identical values can stand only once. Inconclusive results and toxic doses are left out.

Test system: CD2F1 mice, L1210 leukemia ip, survival T/C
Assay: NCI In Vivo Anticancer Drug Screen. Data for tumor model L1210 Leukemia (intraperitoneal) in CD2F1 (CDF1) mice
Settings: higher = longer survival
Procedure, shortened: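 Each value reflects a quotient of treated over vehicle control outcomes in mice with a transplanted tumor.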

[1] = endpoint: mean survival time, dose: 100.0 mg/kg/injection, schedule: Q04DX003 (ip), vehicle: saline
[2] = endpoint: mean survival time, dose: 200.0 mg/kg/injection, schedule: Q04DX003 (ip), vehicle: saline
[3] = endpoint: mean survival time, dose: 400.0 mg/kg/injection, schedule: Q04DX003 (ip), vehicle: saline
[4] = endpoint: mean survival time, dose: 100.0 mg/kg/injection, schedule: Q04DX003 (ip), vehicle: Klucel (hydroxypropylcellulose) (HPC)
[5] = endpoint: mean survival time, dose: 200.0 mg/kg/injection, schedule: Q04DX003 (ip), vehicle: Klucel (hydroxypropylcellulose) (HPC)
[6] = endpoint: mean survival time, dose: 400.0 mg/kg/injection, schedule: Q04DX003 (ip), vehicle: Klucel (hydroxypropylcellulose) (HPC)
[7] = endpoint: mean survival time, dose: 100.0 mg/kg/injection, schedule: Q01DX009 (ip), vehicle: saline with Tween-80
[8] = endpoint: mean survival time, dose: 100.0 mg/kg/injection, schedule: Q04DX003 (ip), vehicle: saline with Tween-80
[9] = endpoint: mean survival time, dose: 200.0 mg/kg/injection, schedule: Q01DX009 (ip), vehicle: saline with Tween-80
[10] = endpoint: mean survival time, dose: 200.0 mg/kg/injection, schedule: Q04DX003 (ip), vehicle: saline with Tween-80
[11] = endpoint: mean survival time, dose: 400.0 mg/kg/injection, schedule: Q04DX003 (ip), vehicle: saline with Tween-80
[12] = endpoint: mean survival time, dose: 400.0 mg/kg/injection, schedule: Q01DX009 (ip), vehicle: saline with Tween-80
[13] = endpoint: mean survival time, dose: 50.0 mg/kg/injection, schedule: Q01DX009 (ip), vehicle: saline with Tween-80
[14] = endpoint: mean survival time, dose: 100.0 mg/kg/injection, schedule: Q04DX003 (ip), vehicle: saline sonified

## CCCCn1cnc2c(=S)nc[nH]c21
endpoint: mean survival time, dose: 32.0 mg/kg/injection, schedule: Q01DX009 (ip), vehicle: saline
  T/C: 118 % of control and 105 % of control
endpoint: mean survival time, dose: 64.0 mg/kg/injection, schedule: Q01DX009 (ip), vehicle: saline
  T/C: 112 % of control and 115 % of control
endpoint: mean survival time, dose: 100.0 mg/kg/injection, schedule: Q01DX007 (ip), vehicle: saline
  T/C: 113 % of control
endpoint: mean survival time, dose: 100.0 mg/kg/injection, schedule: Q03DX003 (ip), vehicle: saline
  T/C: 102 % of control
[1]
  T/C: 97 % of control
endpoint: mean survival time, dose: 128.0 mg/kg/injection, schedule: Q01DX009 (ip), vehicle: saline
  T/C: 118 % of control
endpoint: mean survival time, dose: 200.0 mg/kg/injection, schedule: Q01DX007 (ip), vehicle: saline
  T/C: 162 % of control
endpoint: mean survival time, dose: 200.0 mg/kg/injection, schedule: Q01DX009 (ip), vehicle: saline
  T/C: 165 % of control
endpoint: mean survival time, dose: 200.0 mg/kg/injection, schedule: Q03DX003 (ip), vehicle: saline
  T/C: 122 % of control
[2]
  T/C: 118 % of control
endpoint: mean survival time, dose: 256.0 mg/kg/injection, schedule: Q01DX009 (ip), vehicle: saline
  T/C: 153 % of control and 169 % of control
endpoint: mean survival time, dose: 400.0 mg/kg/injection, schedule: Q01DX007 (ip), vehicle: saline
  T/C: 115 % of control
endpoint: mean survival time, dose: 400.0 mg/kg/injection, schedule: Q01DX009 (ip), vehicle: saline
  T/C: 102 % of control
endpoint: mean survival time, dose: 400.0 mg/kg/injection, schedule: Q03DX003 (ip), vehicle: saline
  T/C: 168 % of control
[3]
  T/C: 163 % of control
endpoint: median survival time, dose: 25.0 mg/kg/injection, schedule: Q01DX009 (ip), vehicle: saline with Tween-80
  T/C: 124 % of control and 107 % of control
endpoint: median survival time, dose: 50.0 mg/kg/injection, schedule: Q01DX009 (ip), vehicle: saline with Tween-80
  T/C: 122 % of control
endpoint: median survival time, dose: 100.0 mg/kg/injection, schedule: Q01DX009 (ip), vehicle: saline with Tween-80
  T/C: 164 % of control
endpoint: median survival time, dose: 200.0 mg/kg/injection, schedule: Q01DX009 (ip), vehicle: saline with Tween-80
  T/C: 154 % of control and 164 % of control
endpoint: median survival time, dose: 400.0 mg/kg/injection, schedule: Q01DX009 (ip), vehicle: saline with Tween-80
  T/C: 122 % of control

## Cc1ccc(C#N)c2c1CCC2
endpoint: mean survival time, dose: 100.0 mg/kg/injection, schedule: Q01DX001 (ip), vehicle: Klucel (hydroxypropylcellulose) (HPC)
  T/C: 103 % of control
endpoint: mean survival time, dose: 200.0 mg/kg/injection, schedule: Q01DX001 (ip), vehicle: Klucel (hydroxypropylcellulose) (HPC)
  T/C: 95 % of control
endpoint: mean survival time, dose: 400.0 mg/kg/injection, schedule: Q01DX001 (ip), vehicle: Klucel (hydroxypropylcellulose) (HPC)
  T/C: 103 % of control

## [I][Pt+2][I].[NH-]CC[NH-]
endpoint: mean survival time, dose: 20.0 mg/kg/injection, schedule: Q04DX003 (ip), vehicle: water
  T/C: 115 % of control
endpoint: mean survival time, dose: 40.0 mg/kg/injection, schedule: Q04DX003 (ip), vehicle: water
  T/C: 116 % of control
endpoint: mean survival time, dose: 80.0 mg/kg/injection, schedule: Q04DX003 (ip), vehicle: water
  T/C: 120 % of control
endpoint: mean survival time, dose: 160.0 mg/kg/injection, schedule: Q04DX003 (ip), vehicle: water
  T/C: 115 % of control
endpoint: mean survival time, dose: 320.0 mg/kg/injection, schedule: Q04DX003 (ip), vehicle: water
  T/C: 93 % of control

## C(=N\Nc1nc2ccccc2s1)/c1cccnc1
[4]
  T/C: 97 % of control
[5]
  T/C: 94 % of control
[6]
  T/C: 100 % of control

## COC(=O)c1cn(C2OC(CO)C(O)C2O)c2ncnc(N)c12 (stereo not given)
endpoint: mean survival time, dose: 3.12 mg/kg/injection, schedule: Q01DX009 (ip), vehicle: water
  T/C: 104 % of control
endpoint: mean survival time, dose: 6.25 mg/kg/injection, schedule: Q01DX009 (ip), vehicle: water
  T/C: 112 % of control
endpoint: mean survival time, dose: 12.5 mg/kg/injection, schedule: Q01DX009 (ip), vehicle: water
  T/C: 122 % of control

## CCCCCCCCCCCCCCCc1cc(=O)n(-c2ccc(C(=O)OCC)cc2)n1C
[7]
  T/C: 92 % of control
[8]
  T/C: 97 % of control
[9]
  T/C: 86 % of control
[10]
  T/C: 88 % of control
[11]
  T/C: 100 % of control

## OCC(O)C(O)C(O)C(O)CO (stereo not given)
[7]
  T/C: 98 % of control
[1]
  T/C: 96 % of control
[10]
  T/C: 97 % of control
[2]
  T/C: 98 % of control
[12]
  T/C: 98 % of control
[3]
  T/C: 96 % of control
endpoint: median survival time, dose: 75.0 mg/kg/injection, schedule: Q01DX009 (ip), vehicle: saline with Tween-80
  T/C: 100 % of control
endpoint: median survival time, dose: 150.0 mg/kg/injection, schedule: Q01DX009 (ip), vehicle: saline with Tween-80
  T/C: 97 % of control
endpoint: median survival time, dose: 600.0 mg/kg/injection, schedule: Q01DX009 (ip), vehicle: saline with Tween-80
  T/C: 100 % of control

## O=C1C(Br)=C(Br)C(=O)C(Br)=C1Br
[13]
  T/C: 91 % of control
[7]
  T/C: 94 % of control
[9]
  T/C: 86 % of control

## CCCCCC(C)(C)O
[14]
  T/C: 94 % of control
endpoint: mean survival time, dose: 200.0 mg/kg/injection, schedule: Q04DX003 (ip), vehicle: saline sonified
  T/C: 90 % of control
endpoint: mean survival time, dose: 400.0 mg/kg/injection, schedule: Q04DX003 (ip), vehicle: saline sonified
  T/C: 101 % of control

## CC(N)c1ccccc1 (stereo not given)
endpoint: mean survival time, dose: 37.5 mg/kg/injection, schedule: Q04DX003 (ip), vehicle: saline
  T/C: 98 % of control
endpoint: mean survival time, dose: 75.0 mg/kg/injection, schedule: Q01DX001 (ip), vehicle: saline
  T/C: 96 % of control
endpoint: mean survival time, dose: 75.0 mg/kg/injection, schedule: Q04DX003 (ip), vehicle: saline
  T/C: 100 % of control
endpoint: mean survival time, dose: 150.0 mg/kg/injection, schedule: Q01DX001 (ip), vehicle: saline
  T/C: 100 % of control
endpoint: mean survival time, dose: 150.0 mg/kg/injection, schedule: Q04DX003 (ip), vehicle: saline
  T/C: 100 % of control
endpoint: mean survival time, dose: 300.0 mg/kg/injection, schedule: Q01DX001 (ip), vehicle: saline
  T/C: 106 % of control

## COc1ccc(C(=O)C(CN(C)C)CN(C)C)cc1
endpoint: median survival time, dose: 3.12 mg/kg/injection, schedule: Q01DX009 (ip), vehicle: saline
  T/C: 96 % of control
endpoint: median survival time, dose: 6.25 mg/kg/injection, schedule: Q01DX009 (ip), vehicle: saline
  T/C: 103 % of control
endpoint: median survival time, dose: 12.5 mg/kg/injection, schedule: Q01DX009 (ip), vehicle: saline
  T/C: 104 % of control
endpoint: median survival time, dose: 25.0 mg/kg/injection, schedule: Q01DX009 (ip), vehicle: saline
  T/C: 114 % of control

## Cc1c[n+]([O-])cc(=O)[nH]1
[7]
  T/C: 97 % of control
[8]
  T/C: 96 % of control
[9]
  T/C: 97 % of control
[10]
  T/C: 100 % of control
[12]
  T/C: 95 % of control
[11]
  T/C: 100 % of control

## O=C(OCC#CC#CCOC(=O)c1cccc2ccccc12)c1cccc2ccccc12
[4]
  T/C: 100 % of control
[5]
  T/C: 102 % of control
[6]
  T/C: 96 % of control

## CCCCCC(=O)C(C)C(C)C (stereo not given)
[13]
  T/C: 97 % of control
[7]
  T/C: 97 % of control
[9]
  T/C: 97 % of control

## CC(=O)O.[Ni]
endpoint: mean survival time, dose: 40.0 mg/kg/injection, schedule: Q01DX001 (ip), vehicle: saline
  T/C: 118 % of control

## O=C(O)c1ccc(OCCOc2ccccc2)cc1
endpoint: mean survival time, dose: 66.0 mg/kg/injection, schedule: Q04DX003 (ip), vehicle: saline sonified
  T/C: 101 % of control
[14]
  T/C: 96 % of control
endpoint: mean survival time, dose: 150.0 mg/kg/injection, schedule: Q04DX003 (ip), vehicle: saline sonified
  T/C: 107 % of control

## CC12CCCC(CCCO)(C1)NC(=O)C2 (stereo not given)
endpoint: mean survival time, dose: 100.0 mg/kg/injection, schedule: Q01DX001 (ip), vehicle: saline
  T/C: 101 % of control
endpoint: mean survival time, dose: 200.0 mg/kg/injection, schedule: Q01DX001 (ip), vehicle: saline
  T/C: 101 % of control
endpoint: mean survival time, dose: 400.0 mg/kg/injection, schedule: Q01DX001 (ip), vehicle: saline
  T/C: 101 % of control

## Cc1nc2ccccc2[nH]1
endpoint: mean survival time, dose: 100.0 mg/kg/injection, schedule: Q01DX001 (ip), vehicle: saline with Tween-80
  T/C: 102 % of control
endpoint: mean survival time, dose: 200.0 mg/kg/injection, schedule: Q01DX001 (ip), vehicle: saline with Tween-80
  T/C: 105 % of control

## CC1=C(/C=C/C(C)=C/C=C/C(C)=C/C(=O)Nc2ccc(O)cc2)C(C)(C)CCC1
endpoint: median survival time, dose: 12.5 mg/kg/injection, schedule: Q01DX005 (ip), vehicle: saline with Tween-80
  T/C: 98 % of control
endpoint: median survival time, dose: 25.0 mg/kg/injection, schedule: Q01DX005 (ip), vehicle: saline with Tween-80
  T/C: 101 % of control
endpoint: median survival time, dose: 50.0 mg/kg/injection, schedule: Q01DX005 (ip), vehicle: saline with Tween-80
  T/C: 98 % of control
endpoint: median survival time, dose: 100.0 mg/kg/injection, schedule: Q01DX005 (ip), vehicle: saline with Tween-80
  T/C: 92 % of control
endpoint: median survival time, dose: 200.0 mg/kg/injection, schedule: Q01DX005 (ip), vehicle: saline with Tween-80
  T/C: 96 % of control
